For ten compounds, GI50 and TGI results are on record in PubChem BioAssay (NCI).

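Protocol summary: plate cells (96-well), add compound at 5 concentrations, incubate 48 h, interpolate endpoints linearly. GI50 is the concentration that inhibits growth by half. TGI marks complete inhibition of growth.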

Test systems include K-562 leukemia; OVCAR-3 ovarian; PC-3 prostate; SF-295 CNS; HCC-2998 colon; HS 578T breast; SNB-19 CNS; IGROV1 ovarian; DLD-1 colon; LXFL 529 NSCLC.
Assay in all cases: NCI anticancer screen, dose series, 48 h

Take `Nc1ncnc2c1N=C(c1ccc3c(c1)OCO3)CC(c1ccc(Cl)cc1)N2` (centres undefined): the GI50 in the assay on K-562 leukemia is 4270 nM; in the assay on OVCAR-3 ovarian, 3.71 µM; with PC-3 prostate it was 9060 nM; in the assay on SF-295 CNS it was 14.7 µM; in the assay with HCC-2998 colon, 5.88 µM; in the assay on HS 578T breast, 1070 nM. The GI50 was above 100 µM in the assay with SNB-19 CNS and 351 nM in the assay on IGROV1 ovarian. In addition, the TGI is above 100 µM in the assay with K-562 leukemia; 18.6 µM in the assay with OVCAR-3 ovarian; 22.1 µM with PC-3 prostate; above 100 µM in the assay on SF-295 CNS; 35 µM in the assay with HCC-2998 colon; 7.09 µM with HS 578T breast. The TGI in the assay with SNB-19 CNS was above 100 µM; in the assay with IGROV1 ovarian, 3.76 µM.
`Cc1c(C(=N)C(C#N)C#N)c(=N)oc2c1ccc1ccccc12`: the GI50 in the assay on K-562 leukemia is 19400 nM; in the assay on OVCAR-3 ovarian it was 14.7 µM; in the assay on PC-3 prostate, 29500 nM; in the assay with SF-295 CNS, 33.9 µM; with HCC-2998 colon, 18 µM; with HS 578T breast it was 10500 nM. For the same compound, the figures for the GI50 in the assay on SNB-19 CNS and in the assay with IGROV1 ovarian were 30.5 µM and 7760 nM, respectively. Moreover, the TGI is above 100 µM in the assay with K-562 leukemia; 40.8 µM with OVCAR-3 ovarian; above 100 µM in the assay on PC-3 prostate; above 100 µM in the assay on SF-295 CNS; 39.3 µM in the assay on HCC-2998 colon; 66.2 µM in the assay with HS 578T breast. In addition, the results for the TGI with SNB-19 CNS and with IGROV1 ovarian were above 100 µM and 53.4 µM, respectively.
For `CN[C@@H](C)C(=O)N[C@H]1CN(S(=O)(=O)c2cccc(S(=O)(=O)N3CC[C@H]4CC[C@@H](C(=O)NC(c5ccccc5)c5ccccc5)N4C(=O)[C@@H](NC(=O)[C@H](C)NC)C3)c2)CC[C@H]2CC[C@@H](C(=O)NC(c3ccccc3)c3ccccc3)N2C1=O`, the GI50 was 26500 nM in the assay on K-562 leukemia; 12.2 µM in the assay with OVCAR-3 ovarian; 21500 nM in the assay on PC-3 prostate; 14.4 µM with SF-295 CNS; 11 µM in the assay on HCC-2998 colon; 18900 nM in the assay with HS 578T breast. Moreover, the figures for the GI50 with SNB-19 CNS and in the assay on IGROV1 ovarian were 21.2 µM and 21000 nM, respectively. Besides, the TGI with K-562 leukemia was above 100 µM; in the assay on OVCAR-3 ovarian, 25.2 µM; with PC-3 prostate, above 63.3 µM; with SF-295 CNS, above 71.4 µM; in the assay on HCC-2998 colon, 27.2 µM; in the assay on HS 578T breast, 47.8 µM. The TGI in the assay with SNB-19 CNS was found to be 43.6 µM; in the assay with IGROV1 ovarian it was 44.5 µM.
Turning to `O=C(Nc1cccc(-n2cc(-c3ccncc3)c(-c3cc(O)cc(Cl)c3)n2)c1)c1ccc(N2CCOCC2)c(C(F)(F)F)c1`, the GI50 in the assay on K-562 leukemia is 564 nM; in the assay with OVCAR-3 ovarian, 7.2 µM; in the assay on PC-3 prostate, 1090 nM; in the assay with SF-295 CNS, 0.614 µM; in the assay with HCC-2998 colon, 1.82 µM; in the assay on HS 578T breast it was 2940 nM. For the same compound, the GI50 with SNB-19 CNS was 3.33 µM; with IGROV1 ovarian, 5120 nM. For the same compound, the TGI in the assay with K-562 leukemia was 4.88 µM; in the assay with OVCAR-3 ovarian it was above 100 µM; with PC-3 prostate it was 45.6 µM; with SF-295 CNS, 2.78 µM; in the assay on HCC-2998 colon, 7.95 µM; in the assay with HS 578T breast it was above 100 µM. Further, the TGI is 33.6 µM in the assay on SNB-19 CNS and above 100 µM with IGROV1 ovarian.
For `O=[N+]([O-])c1ccccc1C1SCc2nc3ccccc3n21` (centres undefined), the TGI in the assay on K-562 leukemia, with SF-295 CNS, with SNB-19 CNS, in the assay on IGROV1 ovarian, with DLD-1 colon and in the assay with LXFL 529 NSCLC was above 100 µM throughout.
On to `COc1cc(Nc2cnc3ccc(C(F)(F)F)cc3n2)cc(OC)c1OC`, for which the TGI was above 100 µM in the assay with OVCAR-3 ovarian; 91.2 µM in the assay with SF-295 CNS; above 100 µM with HCC-2998 colon; above 100 µM in the assay on SNB-19 CNS; above 100 µM with LXFL 529 NSCLC.
In the case of `CC1(C)N=C(N)N=C(N)N1c1ccc(CCC(=O)Nc2ccc(S(=O)(=O)F)cc2)cc1`, the GI50 in the assay with K-562 leukemia was 533 nM; in the assay with OVCAR-3 ovarian, 8.03 µM; in the assay on PC-3 prostate, 59.3 nM; in the assay on SF-295 CNS it was 4.49 µM; with HCC-2998 colon, 3.85 µM; in the assay on HS 578T breast, above 75800 nM. The results for the GI50 with SNB-19 CNS and in the assay with IGROV1 ovarian were 7.16 µM and 72.3 nM, respectively. The TGI was above 100 µM with K-562 leukemia; above 100 µM in the assay on OVCAR-3 ovarian; above 72.1 µM with PC-3 prostate; above 100 µM in the assay with SF-295 CNS; above 100 µM in the assay with HCC-2998 colon; above 100 µM in the assay on HS 578T breast. Moreover, the TGI in the assay on SNB-19 CNS and in the assay on IGROV1 ovarian was above 100 µM throughout.
`CCNc1nc(O)c(/C=C2\C=Nc3ncccc32)s1`: the GI50 was 10000 nM in the assay on K-562 leukemia; 2.66 µM in the assay on OVCAR-3 ovarian; 4040 nM in the assay with PC-3 prostate; 3.45 µM in the assay on SF-295 CNS; 4.92 µM in the assay on HCC-2998 colon; 2950 nM in the assay with HS 578T breast. For the same compound, the GI50 was 3.6 µM with SNB-19 CNS and 4660 nM with IGROV1 ovarian. The TGI in the assay with K-562 leukemia was above 100 µM; in the assay on OVCAR-3 ovarian, 8.49 µM; in the assay with PC-3 prostate, above 100 µM; in the assay on SF-295 CNS, above 100 µM; in the assay with HCC-2998 colon it was 36.7 µM; with HS 578T breast, 8.29 µM. Also, the TGI in the assay on SNB-19 CNS and in the assay on IGROV1 ovarian was above 100 µM in each case.
In the case of `CCN=c1sc2c(n1NC(=O)c1cc3ccc1CCc1ccc(cc1)CC3)C(=O)c1ccccc1C2=O`, the GI50 was 920 nM in the assay with K-562 leukemia; 0.567 µM in the assay on OVCAR-3 ovarian; 643 nM in the assay on PC-3 prostate; 0.951 µM in the assay with SF-295 CNS; 0.824 µM in the assay on HCC-2998 colon; 784 nM in the assay on HS 578T breast. Further, the results for the GI50 in the assay with SNB-19 CNS and in the assay with IGROV1 ovarian were 0.605 µM and 449 nM, respectively. The TGI in the assay with K-562 leukemia was 13 µM; with OVCAR-3 ovarian it was 1.52 µM; in the assay on PC-3 prostate, 3.05 µM; with SF-295 CNS, 2.64 µM; in the assay on HCC-2998 colon, 2.1 µM; with HS 578T breast, 2.28 µM. Further, the TGI is 1.33 µM in the assay on SNB-19 CNS and 1.31 µM in the assay on IGROV1 ovarian.
On to `CCN1C(=S)N(CC)C2C1NC(=S)N2/N=C/C=C/c1ccccc1OC` (centres undefined), for which the GI50 in the assay with K-562 leukemia was 129 nM; in the assay with OVCAR-3 ovarian, 0.174 µM; in the assay on PC-3 prostate it was 290 nM; in the assay on SF-295 CNS, 0.113 µM; in the assay with HCC-2998 colon, 0.392 µM; with HS 578T breast, 322 nM. The GI50 was 0.48 µM in the assay on SNB-19 CNS and 506 nM with IGROV1 ovarian. In addition, the TGI in the assay with K-562 leukemia is above 72.1 µM; in the assay with OVCAR-3 ovarian it was 0.64 µM; in the assay with PC-3 prostate, above 100 µM; in the assay with SF-295 CNS it was 9.18 µM; with HCC-2998 colon, 25.3 µM; with HS 578T breast, above 100 µM. The TGI with SNB-19 CNS and with IGROV1 ovarian was above 100 µM in each case.
